“And” between values parts separate entries of the source, which are not always exact repeats. Equal values may be shown once. Inconclusive results and toxic doses are left out. Cut-off read from the data, not from the text of the source: active = T/C of 150% or more; inactive = T/C below 125%.
Tested on: L1210 leukemia ip in BDF1 mice, survival T/C
Assay: NCI In Vivo Anticancer Drug Screen. Data for tumor model L1210 Leukemia (intraperitoneal) in B6D2F1 (BDF1) mice
Conditions: endpoint: mean survival time, higher = longer survival
In short: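 Value reflects the ratio of survival in compound-treated mice to survival in vehicle-treated controls, with both groups carrying the same transplanted tumor.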

[1] = dose: 100.0 mg/kg/injection, schedule: Q01DX001 (ip), vehicle: saline
[2] = dose: 100.0 mg/kg/injection, schedule: Q01DX009 (ip), vehicle: saline sonified
[3] = dose: 200.0 mg/kg/injection, schedule: Q01DX001 (ip), vehicle: saline
[4] = dose: 200.0 mg/kg/injection, schedule: Q01DX009 (ip), vehicle: saline sonified
[5] = dose: 400.0 mg/kg/injection, schedule: Q01DX001 (ip), vehicle: saline
[6] = dose: 75.0 mg/kg/injection, schedule: Q01DX001 (ip), vehicle: saline
[7] = dose: 12.5 mg/kg/injection, schedule: Q01DX009 (ip), vehicle: Klucel (hydroxypropylcellulose) (HPC)
[8] = dose: 25.0 mg/kg/injection, schedule: Q01DX009 (ip), vehicle: Klucel (hydroxypropylcellulose) (HPC)
[9] = dose: 50.0 mg/kg/injection, schedule: Q01DX009 (ip), vehicle: Klucel (hydroxypropylcellulose) (HPC)
[10] = dose: 100.0 mg/kg/injection, schedule: Q04DX003 (ip), vehicle: saline with Tween-80
[11] = dose: 200.0 mg/kg/injection, schedule: Q04DX003 (ip), vehicle: saline with Tween-80
[12] = dose: 400.0 mg/kg/injection, schedule: Q04DX003 (ip), vehicle: saline with Tween-80

Measured: T/C

O=C(O)C1CCCC2C(O)CCC(=O)C12 (stereo not given)
inactive: [1] 95 % of control and 107 % of control | [2] 98 % of control | dose: 100.0 mg/kg/injection, schedule: Q04DX003 (ip), vehicle: saline sonified 100 % of control | [3] 104 % of control and 101 % of control | [4] 102 % of control | dose: 200.0 mg/kg/injection, schedule: Q04DX003 (ip), vehicle: saline sonified 92 % of control | [5] 107 % of control and 96 % of control | dose: 400.0 mg/kg/injection, schedule: Q01DX009 (ip), vehicle: saline sonified 93 % of control | dose: 400.0 mg/kg/injection, schedule: Q04DX003 (ip), vehicle: saline sonified 95 % of control

COc1ccccc1N1C(N)=NC(N)=NC1(C)C
inactive: dose: 25.0 mg/kg/injection, schedule: Q01DX009 (ip), vehicle: saline 104 % of control | dose: 25.0 mg/kg/injection, schedule: Q04DX003 (ip), vehicle: saline 113 % of control | dose: 50.0 mg/kg/injection, schedule: Q01DX009 (ip), vehicle: saline 98 % of control and 100 % of control | dose: 50.0 mg/kg/injection, schedule: Q04DX003 (ip), vehicle: saline 97 % of control | dose: 100.0 mg/kg/injection, schedule: Q04DX003 (ip), vehicle: saline 92 % of control

[Cl][Pt+2][Cl].[NH-]C1CCCC1.[NH-]C1CCCC1
inactive: dose: 10.0 mg/kg/injection, schedule: Q01DX009 (ip), vehicle: Klucel (hydroxypropylcellulose) (HPC) 102 % of control | dose: 20.0 mg/kg/injection, schedule: Q01DX009 (ip), vehicle: Klucel (hydroxypropylcellulose) (HPC) 116 % of control | dose: 20.0 mg/kg/injection, schedule: Q04DX003 (ip), vehicle: Klucel (hydroxypropylcellulose) (HPC) 121 % of control | dose: 40.0 mg/kg/injection, schedule: Q01DX005 (ip), vehicle: olive oil, sesame oil, peanut oil 109 % of control | dose: 40.0 mg/kg/injection, schedule: Q01DX009 (ip), vehicle: Klucel (hydroxypropylcellulose) (HPC) 107 % of control | dose: 40.0 mg/kg/injection, schedule: Q04DX003 (ip), vehicle: Klucel (hydroxypropylcellulose) (HPC) 111 % of control and 123 % of control | dose: 66.0 mg/kg/injection, schedule: Q01DX005 (ip), vehicle: olive oil, sesame oil, peanut oil 112 % of control | dose: 80.0 mg/kg/injection, schedule: Q01DX009 (ip), vehicle: Klucel (hydroxypropylcellulose) (HPC) 121 % of control | dose: 80.0 mg/kg/injection, schedule: Q04DX003 (ip), vehicle: Klucel (hydroxypropylcellulose) (HPC) 117 % of control | dose: 100.0 mg/kg/injection, schedule: Q01DX005 (ip), vehicle: olive oil, sesame oil, peanut oil 120 % of control | dose: 150.0 mg/kg/injection, schedule: Q01DX005 (ip), vehicle: olive oil, sesame oil, peanut oil 115 % of control | dose: 160.0 mg/kg/injection, schedule: Q01DX009 (ip), vehicle: Klucel (hydroxypropylcellulose) (HPC) 124 % of control | dose: 160.0 mg/kg/injection, schedule: Q04DX003 (ip), vehicle: Klucel (hydroxypropylcellulose) (HPC) 108 % of control and 112 % of control | dose: 320.0 mg/kg/injection, schedule: Q01DX009 (ip), vehicle: Klucel (hydroxypropylcellulose) (HPC) 96 % of control | dose: 320.0 mg/kg/injection, schedule: Q04DX003 (ip), vehicle: Klucel (hydroxypropylcellulose) (HPC) 118 % of control

CCN(CC)CCN(C)CC(=O)Nc1ccccc1C
inactive: [6] 100 % of control | dose: 150.0 mg/kg/injection, schedule: Q01DX001 (ip), vehicle: saline 103 % of control | dose: 300.0 mg/kg/injection, schedule: Q01DX001 (ip), vehicle: saline 101 % of control

c1ccc(N/N=C(/C[n+]2cc3ccccc3c3ccccc32)c2ccccc2)cc1
inactive: [7] 100 % of control | [8] 89 % of control | [9] 102 % of control | dose: 100.0 mg/kg/injection, schedule: Q01DX009 (ip), vehicle: Klucel (hydroxypropylcellulose) (HPC) 100 % of control

C[N+](C)(C)Cc1ccccc1C=C(c1ccccc1)c1ccccc1
inactive: [7] 98 % of control | [8] 104 % of control | dose: 25.0 mg/kg/injection, schedule: Q04DX003 (ip), vehicle: Klucel (hydroxypropylcellulose) (HPC) 101 % of control | [9] 98 % of control | dose: 50.0 mg/kg/injection, schedule: Q04DX003 (ip), vehicle: Klucel (hydroxypropylcellulose) (HPC) 88 % of control

Cc1ccc(Cl)cc1NC(=O)COc1ccc(Cl)cc1Cl
inactive: dose: 100.0 mg/kg/injection, schedule: Q01DX009 (ip), vehicle: saline with Tween-80 96 % of control | [10] 107 % of control | dose: 200.0 mg/kg/injection, schedule: Q01DX009 (ip), vehicle: saline with Tween-80 93 % of control | [11] 93 % of control | dose: 400.0 mg/kg/injection, schedule: Q01DX009 (ip), vehicle: saline with Tween-80 93 % of control | [12] 98 % of control

O/N=C1/CCN2CCCc3cccc1c32
inactive: [10] 94 % of control | [11] 97 % of control

O=C(NCN1CCOCC1)Nc1ccc(Cl)cc1
inactive: dose: 25.0 mg/kg/injection, schedule: Q01DX009 (ip), vehicle: gum acacia 100 % of control | dose: 50.0 mg/kg/injection, schedule: Q01DX009 (ip), vehicle: gum acacia 91 % of control

Cn1cc2ccccc2n1
inactive: dose: 50.0 mg/kg/injection, schedule: Q01DX001 (ip), vehicle: saline with Tween-80 102 % of control | dose: 100.0 mg/kg/injection, schedule: Q01DX001 (ip), vehicle: saline with Tween-80 100 % of control | dose: 200.0 mg/kg/injection, schedule: Q01DX001 (ip), vehicle: saline with Tween-80 102 % of control

CCCCC(=O)CCl
inactive: [1] 103 % of control | [3] 120 % of control | [5] 114 % of control

CN1CCC23c4c5ccc(O)c4OC2C(=O)CCC3C1C5 (stereo not given)
inactive: [6] 95 % of control

CC(C)Nc1nc(N)nc2nc(-c3ccc(Cl)cc3)c(-c3ccc(Cl)cc3)nc12
inactive: [1] 100 % of control | [3] 113 % of control | [5] 107 % of control

CN1C(c2ccccc2)(c2ccccc2)c2ccccc2S1(=O)=O
inactive: dose: 100.0 mg/kg/injection, schedule: Q01DX001 (ip), vehicle: carboxymethylcellulose (CMC) 95 % of control | dose: 200.0 mg/kg/injection, schedule: Q01DX001 (ip), vehicle: carboxymethylcellulose (CMC) 95 % of control | dose: 400.0 mg/kg/injection, schedule: Q01DX001 (ip), vehicle: carboxymethylcellulose (CMC) 93 % of control

CCCOC(=O)c1cncc(C(=O)OCCC)c1
inactive: [10] 94 % of control | [11] 105 % of control | [12] 100 % of control

O=C1C=C(O)C(=O)C=C1O
inactive: dose: 3.0 mg/kg/injection, schedule: Q01DX009 (ip), vehicle: saline 111 % of control | dose: 5.0 mg/kg/injection, schedule: Q01DX001 (ip), vehicle: saline 103 % of control | dose: 6.0 mg/kg/injection, schedule: Q01DX009 (ip), vehicle: saline 98 % of control | dose: 10.0 mg/kg/injection, schedule: Q01DX001 (ip), vehicle: saline 101 % of control | dose: 10.0 mg/kg/injection, schedule: Q01DX009 (ip), vehicle: saline with Tween-80 100 % of control | dose: 12.0 mg/kg/injection, schedule: Q01DX009 (ip), vehicle: saline 103 % of control | dose: 12.5 mg/kg/injection, schedule: Q04DX002 (ip), vehicle: saline 105 % of control and 92 % of control | dose: 12.5 mg/kg/injection, schedule: Q04DX003 (ip), vehicle: saline 90 % of control | dose: 20.0 mg/kg/injection, schedule: Q01DX001 (ip), vehicle: saline 98 % of control | dose: 25.0 mg/kg/injection, schedule: Q04DX002 (ip), vehicle: saline 94 % of control | dose: 40.0 mg/kg/injection, schedule: Q01DX009 (ip), vehicle: saline with Tween-80 92 % of control | dose: 50.0 mg/kg/injection, schedule: Q04DX002 (ip), vehicle: saline 108 % of control

COc1cc2c(cc1OC)C(=O)CN(S(=O)(=O)c1ccc(C)cc1)CC2
inactive: dose: 50.0 mg/kg/injection, schedule: Q01DX009 (ip), vehicle: saline sonified 101 % of control | [2] 87 % of control | dose: 100.0 mg/kg/injection, schedule: Q04DX003 (ip), vehicle: Klucel (hydroxypropylcellulose) (HPC) 96 % of control | [4] 89 % of control | dose: 200.0 mg/kg/injection, schedule: Q04DX003 (ip), vehicle: Klucel (hydroxypropylcellulose) (HPC) 96 % of control | dose: 400.0 mg/kg/injection, schedule: Q04DX003 (ip), vehicle: Klucel (hydroxypropylcellulose) (HPC) 97 % of control

Reference: PubChem BioAssay AID248 (DTP/NCI, 2004)
